The text below walks through data of PMC2635646, “Recognition Properties and Competitive Assays of a Dual Dopamine/Serotonin Selective Molecularly Imprinted Polymer” (International Journal of Molecular Sciences, 2008).

Assay [1] is described as follows: 1H-NMR titration of template/functional monomer complexation. Format: binding. Particulars: S template, d6-DMSO, 25 °C. An excerpt: A mixture of methanol and water (4:1, v/v) was chosen as the porogen solvent for the D and S templates, as the hydrochloride salts were soluble only in polar solvents. The strength and positioning of the monomer-template interactions are of importance in developing materials with good molecular recognition properties. For the current work, the functional monomers and cross-linker had been constructed into the MIP structure with a view toward obtaining an efficient recognition system in a polar medium. MAA and ACM were generally used as functional monomers for the imprinting process. Both D and S have a phenolic hydroxyl and the nitrogen atom(s) of the amine group(s) acts as a hydrogen donor-acceptor moiety for binding functional monomers with a corresponding hydrogen bonding pattern. […] However, the huge excess of water and methanol that would be form H-bonds in competition with template and monomer, would reduce binding energy between template and monomer. […] The MBAA cross-linker also forms hydrogen bonds with the carboxylic acid and amino groups of the templates. Figure 2 illustrates the dual dopamine/serotonin molecular recognition site generation in this work.
The change in chemical shifts of proton resonances as a function of D (or S) concentrations was studied in DMSO-d6.

Assay [2] relates to serotonin receptors derived from rat hypothalamus. Description: Saturation binding of S ligand to rat hypothalamus receptor (Scatchard). More on the design: species or system male-Wistar rat. Conditions: 50 mM Tris HCl, 37 °C, mean ± SD. Here is the method:
The equilibrium binding constants of the ergots on dopamine and serotonin receptors derived from rat hypothalamus was examined in a displacement assay using the added D and S as the molecular probes. The male-Wistar rat hypothalami receptors were isolated using a previously described procedure. The receptor pellets were washed with 50 mM Tris HCl until the endogenous D and S are no longer found in the rinse as examined by the fluorescence method described in the binding study. The pellets were then re-suspended in 50 mM Tris HCl with 0.5 mM Na2EDTA, 0.1% Na ascorbate before use. The protein content of the receptor pellets was verified by using the procedure of Bradford. Saturation experiments for the rat hypothalamus receptor were carried out by varying the concentration of D or S ligand in a 50 mM Tris HCl with 0.5 mM Na2EDTA and 0.1% Na ascorbate solution at 37 °C. The D and S binding at various concentrations was determined, using the fluorescence spectroscopic method for assay of the unbound probe as in the binding study.

Structures can show the parent of a compound that is named as a salt. Where two headings read alike, the source gives them in different places.

Consider `NCCc1c[nH]c2ccc(O)cc12` [S, serotonin hydrochloride], for which the Kd was 680 ± 100 µM in assay [1] (1:1 complex, read-out: app. Kdiss with MAA, template's hydroxyl group); 920 ± 100 µM in assay [1] (1:1 complex, read-out: app. Kdiss with MAA, template's indolyl amino group); 190 ± 100 µM in assay [1] (read-out: app. Kdiss with ACM, template's hydroxyl group); 430 ± 100 µM in assay [1] (read-out: app. Kdiss with ACM, template's indolyl amino group); 0.00011 ± 1e-05 µM in assay [2] (n = 3, read-out: dissociation constant (Kd)). In addition, the “receptor binding (Bmax)” value in assay [2] (n = 3) came out at 1.11 ± 0.01 pmol/mg protein.
